Data from patent US20070042026A1, “Prophylactic and therapeutic treatment of topical and transdermal drug-induced skin reactions” (priority 2005, published 2007).
pEC50: −log10 of the molar value. Each block holds one compound with its values, some of them ahead of it.

Tests used:
[1] = test system: mouse skin; settings: cited from earlier work; for contact sensitization in a mouse skin model (mast cell degranulating agents): in vivo
[2] = DPPH* free-radical scavenging anti-oxidant assay; settings: absorbance at 595 nm, after 30 minutes of incubation at 25° C.; read-out: molar activity (EC50, concentration that lowers the zero time optical absorbance of DPPH by 50 percent)
Description: Solutions of test compounds were assayed for their antioxidant activity by the free-radical scavenging method that uses diphenylpicryl hydrazine (DPPH*) reagent as described previously (Bonina et al, 2003). In order to standardize the activity, we defined for each compound, an EC50 value as the concentration that lowers the zero time optical absorbance of DPPH at 595 nm by 50 percent measured after 30 minutes of incubation at 25° C.

[3] = test system: HaCat keratinocytes; experiment: Retinoid-stimulated autocrine clonal growth of HaCat keratinocytes (biochemical assay for anti-irritant activity); type: cell-based, human; settings: 10 μM, 48 hours after treatment, retinoid-stimulated autocrine growth conditions
Description: Since retinoids irritate skin leading to epidermal hyperplasia, we have employed an in vitro cell culture method to detect antioxidants that act to inhibit retinoid-stimulated autocrine growth of human keratinocytes.
Method: An immortalized line of human epidermal kertatinocytes, HaCat keratinocytes, can be cultured in a serum-free culture medium. Sterile Petri dishes (35 mm^2) are seeded at 5,000 cells per cm^2 and placed in a humidifed CO2 incubator at 37° C. for 3-5 days or until the culture reaches about 30% confluent monolayer growth. The dishes are washed once with ice-cold serum-free media lacking EGF and insulin, and refed 2.5 ml of serum-free culture medium containing 5 ug/ml insulin and retinyl acetate (RA, 3×10^−8 M). Duplicate control dishes are fixed and stained with 0.2% crystal violet to record the amount of clonal growth prior to refeeding with fresh RA-containing medium. Test dishes refed RA and insulin are split into three groups in duplicate. Group A is refed on the RA plus insulin medium. Group B is refed RA plus insulin medium and a […] inhibitor (PD 153035), and Group C is refed medium containing RA plus insulin and from 0.1 to 5% of a hydroalcoholic botanical extract. All dishes are adjusted to have the same final concentration of alcohol (1%). All dishes are placed back in the incubator for 2 and 4 days. They are fixed and stained with 0.2% crystal violet. […]

[4] = Rosmarinic acid 5%; cited from earlier work
[5] = test system: mouse skin; settings: cited from earlier work
[6] = test system: volar arm skin of volunteers; experiment: 24-hour occlusive patch (Finn chamber) anti-irritant test with 0.5% benzalkonium chloride carrier gels; type: in vivo, human
Description: Occlusive patch testing was conducted on extracts prepared by starch gel encapsulation in a oil-in water emulsion system previously described (Wille, 2003).
Anti-irritant assays: All carrier system gels were prepared with 0.5% benzalkonium chloride, a mild irritant. To test for anti-irritancy, the irritant-containing carrier gels were also loaded with the test botanical extracts (experimentals). The control and test gels were deposited (100 microliters) on 10 mm square circular filter paper discs and placed in side of Finn chambers (20 mm square), which were then applied to the volar arm skin of volunteers. The chambers were affixed to skin with non-allergic adhesive tape and left in place for 24 hours. Upon termination of the treatments, the chambers were removed and the skin gently wiped clean with moistened cotton swabs. The exposed skin was first examined for signs of erythema (redness) and induration (swelling), and skin sites photographed. The exposed skin sites were probed for skin capacitance (skin moisture levels) using a Corneometer instrument (Courage & Khazaka, Koln, Germany).

SMILES: COc1cc(CNC(=O)CCCC/C=C/C(C)C)ccc1O [capsaicin]
contact sensitization in a mouse skin model (mast cell degranulating agents) [1]: prevent contact sensitization

pEC50 [2]: 4.52
SMILES: CCCCCCCCCCCCCCCC(=O)OC[C@H](O)[C@H]1OC(=O)C(O)=C1O [ascorbyl palmitate]

SMILES: COc1ccc(CCN(C)CCCC(C#N)(c2ccc(OC)c(OC)c2)C(C)C)cc1OC (stereo not shown) [Verapamil]
minimizing contact sensitization due to Nadolol ([1]; topical application of Nadolol to mouse skin): effective

SMILES: O.O.O=c1c(O)c(-c2ccc(O)c(O)c2)oc2cc(O)cc(O)c12 [quercetin dihydrate]
pEC50 [2]: 4.07
clonal growth relative to the untreated control [3]: completely inhibited

SMILES: O=C(/C=C/c1ccc(O)c(O)c1)O[C@H](Cc1ccc(O)c(O)c1)C(=O)O [Rosmarinic acid]
reduction of the irritating action of alpha-hydroxy acids (lactic and glycolic acids) [4]: over three-fold

SMILES: O=C(O)/C=C\c1c[nH]cn1 [cis-urocanic acid]
contact sensitization in a mouse skin model (mast cell degranulating agents) [1]: prevent contact sensitization

SMILES: O=C(O)COc1ccccc1 [Phenoxyacetic acid]
contact sensitization due to para-phenylenediamine ([1]; application of the hair dye to mouse skin): prevent contact sensitization
skin irritation due to a panel of known skin irritants including sodium lauryl sulfate ([5]; mouse, in vivo): block skin irritation

SMILES: O=C(O)c1cc(O)c(O)c(O)c1 [gallic acid, 3,4,5-trihydroxybenzoic acid]
effect on benzalkonium chloride induced skin irritation ([6]; 24 hour occlusion): anti-irritant effect
irritancy to skin ([6]; gallic acid alone, 24 hours of occlusion): not irritating to skin
skin hydration profile ([6]; gallic acid alone, after 24 hours of occlusion): does not alter skin hydration profile

pEC50 [2]: 4.59
SMILES: O=C1O[C@H]([C@@H](O)CO)C(O)=C1O [ascorbic acid]

pEC50 [2]: 4.34
SMILES: Cc1c(C)c2c(c(C)c1O)CC[C@@](C)(CCC[C@H](C)CCC[C@H](C)CCCC(C)C)O2 [vitamin E, alpha-tocopherol]

SMILES: C=C(CC)C(=O)c1ccc(OCC(=O)O)c(Cl)c1Cl [Ethacrynic acid]
prevention of contact sensitization due to Clonidine, Chlorpheniramine, Albuterol and Nadolol ([1]; delivery of the sensitizing drugs to mouse skin): effective
prevention of skin irritation due to 2,4-dinitro-chlorobenzene, arachidonic acid, phorbol myristic acid, trans-retinoic acid and lactic acid ([5]; topical application to mouse): effective
